# Measurements from US20220257557A1, “PHARMACEUTICAL COMPOSITION FOR PREVENTING OR TREATING NEUROLOGICAL DISEASES” (GLACEUM INC., priority 2019, published 2022).
# Experiments:
# [1] = biological target: T1, rePON1 (PON1, paraoxonase 1) (Homo sapiens, UniProt P27169); assay: Prevention of inhibition of PON1 activity by oxidized linolenic acid (TBBL substrate); assay type: biochemical; conditions: for activity at 30 µM: 30 μM compound with rePON1 30 min, then oxidized linolenic acid 2 h, TBBL substrate, normal control 100, negative control 73.64; for extent to which inhibition of rePON1 activity was prevented, compared with glabridin: compound 30 μM vs glabridin 30 μM; for extent to which inhibition of rePON1 activity was prevented, compared with glabridin / inhibition of rePON1 activity by oxidized linolenic acid: result in words; for inhibition of rePON1 activity by oxidized linolenic acid: compound 30 μM
# T1 construct: purchased Thermo Corp. RP-75678
# Protocol: Based on the fact that the activity of PON1 is inhibited when PON1 is treated with oxidized linolenic acid, an experiment was conducted to confirm the prevention of inhibition of PON1 activity. The activity of PON1 was measured using TBBL (5-thiobutyl butyrolactones) as a substrate.
# Specifically, after 9.6 μl of 50 mM Tris-HCl containing 1 mM CaCl2 was added to each of […] Eppendorf tubes, 0.2 μl of each of the compounds of Formulas III-1, IV-1, V-1, IV-2, V-2, II-1, IV-3, V-3, III-2, IV-4, V-4, II-2 and III-3 and glabridine was added to each tube so that the concentration thereof was 30 μM. 0.2 μl of rePON1 (RP-75678, Thermo Corp.) was added to each of the 12 tubes and mixed. Thereafter, each of the mixtures was allowed to react at room temperature for 30 minutes, and 0.5 μl of 1 mM oxidized linolenic acid (OX-LA) dissolved in DMSO was added thereto in order to inhibit rePON1 activity, followed by reaction at room temperature for 2 hours, thus preparing solutions (I).
# 25 μl of 0.5 mM DTNB dissolved in 50 mM Tris-HCl containing 1 mM CaCl2 was dispensed into each well of a 384-well plate, and then 10 μl of each of the solutions (I) was dispensed into each well, and 20 μl of 2 mM TBBL dissolved in 50 mM Tris-HCl containing 1 mM CaCl2 was added to each well, thus preparing samples. The absorbance of each of the samples at 420 nm was measured using a spectrometer (SpectraMax M2) at 37° C. every 2 minutes for 1 hour.
# In addition, a negative control was prepared in the same manner as the above-described method, except that, for the preparation of a solution, 0.2 μl of DMSO was added instead of the compounds of Formulas III-1, IV-1, V-1, IV-2, V-2, II-1, IV-3, V-3, III-2, IV-4, V-4, II-2 and III-3 and glabridin. Furthermore, a normal control was prepared in the same manner as the above-described method, except that, for the preparation of a solution, 0.2 μl of DMSO was added instead of the above-described compounds and glabridin and that oxidized linolenic acid was not added. The absorbance of each of the negative control and the normal control was measured.
# Using SoftMax Pro software, the activity of PON1 was calculated from the absorbance using the following Equation 1, and the results are shown in Table 1 below.
# Activity=(absorbancesample−absorbanceblank)/(absorbancePON1−absorbanceblank)*100 [Equation 1]
# BV2 cells [2] = assay: iNOS and COX-2 expression after LPS (Western blot); assay type: cell-based; conditions: 3 h pretreatment (Table 3 amounts), LPS 1 μg/ml 24 h
# Protocol: (§1) RAW264.7 cells or BV2 cells (5×10^5 cells/well) were dispensed in DMEM containing 10% heat-inactivated FBS, 10 IU/mL penicillin G, 100 μg/mL streptomycin and 2 mM L-glutamine and cultured in a 5% CO2 incubator at a temperature of 37° C.
# (§2) The compound of Formula III-3, III-4, V-3, III-1, IV-1, V-1, IV-2, V-2 or II-2 was added to the RAW264.7 cells or BV2 cells, and the toxicities of the compounds were determined by MTT assay.
# (§3) The pretreated cells of Experimental Example 4-1 were treated with 1 μg/ml of LPS for 24 hours, and then the expression levels of iNOS and COX-2 were observed through Western blot, and the production of NO and PGE2 was measured.
# RAW264.7 cells [3] = assay: iNOS and COX-2 expression after LPS (Western blot); assay type: cell-based; conditions: 3 h pretreatment (Table 3 amounts), LPS 1 μg/ml 24 h
# Protocol: as §1, §2, §3
# BV2 cells [4] = assay: NO and PGE2 production after LPS; assay type: cell-based; conditions: 3 h pretreatment (Table 3 amounts), LPS 1 μg/ml 24 h
# Protocol: as §1, §2, §3
# RAW264.7 cells [5] = assay: NO and PGE2 production after LPS; assay type: cell-based; conditions: 3 h pretreatment (Table 3 amounts), LPS 1 μg/ml 24 h
# Protocol: as §1, §2, §3
# BV2 cells [6] = assay: IL-1β, IL-6 and TNF-α mRNA expression after LPS (RT-PCR); assay type: cell-based; conditions: 3 h pretreatment (Table 3 amounts), LPS 1 μg/ml 6 h
# Protocol: as §1, §2
# (§4) The pretreated cells of Experimental Example 4-1 were treated with 1 μg/ml of LPS for 6 hours, and then the mRNA expression level of the cytokine IL-1β, IL-6 or TNF-α produced in the inflammatory response was analyzed using RT-PCR.
# RAW264.7 cells [7] = assay: as above; assay type: cell-based; conditions: 3 h pretreatment (Table 3 amounts), LPS 1 μg/ml 6 h
# Protocol: as §1, §2, §4
# RAW264.7 cells [8] = assay: Transcription of NF-κB protein (p65, p50) into nucleus after LPS (Western blot); assay type: cell-based; conditions: 3 h pretreatment (Table 3 amounts), LPS 1 μg/ml 1 h
# Protocol: RAW264.7 cells or BV2 cells (5×10^5 cells/well) were dispensed in DMEM containing 10% heat-inactivated FBS, 10 IU/mL penicillin G, 100 μg/mL streptomycin and 2 mM L-glutamine and cultured in a 5% CO2 incubator at a temperature of 37° C. […]
# (§5) The pretreated cells of Experimental Example 4-1 were treated with 1 μg/ml of LPS for 1 hour, and then the level of transcription of NF-κB protein into the nucleus of each of p65 and p50 was analyzed through Western blot.
# BV2 cells [9] = assay: as above; assay type: cell-based; conditions: 3 h pretreatment (Table 3 amounts), LPS 1 μg/ml 1 h
# Protocol: as §1, §2, §5
# T1 sequence (P27169 whole entry): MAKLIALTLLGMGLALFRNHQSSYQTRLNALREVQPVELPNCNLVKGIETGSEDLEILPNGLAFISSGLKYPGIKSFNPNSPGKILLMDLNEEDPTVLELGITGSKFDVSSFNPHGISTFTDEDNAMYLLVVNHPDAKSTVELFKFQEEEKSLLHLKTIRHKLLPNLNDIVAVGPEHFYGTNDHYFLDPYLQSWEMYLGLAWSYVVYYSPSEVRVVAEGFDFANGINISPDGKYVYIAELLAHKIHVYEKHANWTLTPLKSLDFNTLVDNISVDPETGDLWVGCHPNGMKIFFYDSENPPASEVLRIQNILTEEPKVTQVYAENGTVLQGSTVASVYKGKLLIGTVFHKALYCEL
smiles,measurement,setting,value
"CCOc1ccc([C@@H]2COc3c(ccc4c3CCC(C)(C)O4)C2)c(O)c1 [Formula IV-1, (R)-2-(8,8-dimethyl-2,3,4,8,9,10-hexahydropyrano[2,3-f]chromen-3-yl)-5-ethoxyphenol]",activity at 30 µM,[1],95%
same,"extent to which inhibition of rePON1 activity was prevented, compared with glabridin",[1],greater
same,inhibition of rePON1 activity by oxidized linolenic acid,[1],prevented
same,expression level of COX-2,BV2 cells [2],concentration-dependently decreased
same,expression level of iNOS,BV2 cells [2],concentration-dependently decreased
same,expression level of COX-2,RAW264.7 cells [3],concentration-dependently decreased
same,expression level of iNOS,RAW264.7 cells [3],concentration-dependently decreased
same,production of NO,BV2 cells [4],concentration-dependently decreased
same,production of PGE2,BV2 cells [4],concentration-dependently decreased
same,production of NO,RAW264.7 cells [5],concentration-dependently decreased
same,production of PGE2,RAW264.7 cells [5],concentration-dependently decreased
same,mRNA expression level of IL-1β,BV2 cells [6],concentration-dependently decreased
same,mRNA expression level of IL-6,BV2 cells [6],concentration-dependently decreased
same,mRNA expression level of TNF-α,BV2 cells [6],concentration-dependently decreased
same,mRNA expression level of IL-1β,RAW264.7 cells [7],concentration-dependently decreased
same,mRNA expression level of IL-6,RAW264.7 cells [7],concentration-dependently decreased
same,mRNA expression level of TNF-α,RAW264.7 cells [7],concentration-dependently decreased
same,"level of transcription of NF-κB protein into the nucleus, p50",RAW264.7 cells [8],concentration-dependently decreased
same,"level of transcription of NF-κB protein into the nucleus, p65",RAW264.7 cells [8],concentration-dependently decreased
same,"level of transcription of NF-κB protein into the nucleus, p50",BV2 cells [9],concentration-dependently decreased
same,"level of transcription of NF-κB protein into the nucleus, p65",BV2 cells [9],concentration-dependently decreased
"CCCOc1ccc([C@@H]2COc3c(ccc4c3CCC(C)(C)O4)C2)c(O)c1 [Formula IV-2, (R)-2-(8,8-dimethyl-2,3,4,8,9,10-hexahydropyrano[2,3-f]chromen-3-yl)-5-propoxyphenol]",activity at 30 µM,[1],93.5%
same,"extent to which inhibition of rePON1 activity was prevented, compared with glabridin",[1],greater
same,inhibition of rePON1 activity by oxidized linolenic acid,[1],prevented
same,expression level of COX-2,BV2 cells [2],concentration-dependently decreased
same,expression level of iNOS,BV2 cells [2],concentration-dependently decreased
same,expression level of COX-2,RAW264.7 cells [3],concentration-dependently decreased
same,expression level of iNOS,RAW264.7 cells [3],concentration-dependently decreased
same,production of NO,BV2 cells [4],concentration-dependently decreased
same,production of PGE2,BV2 cells [4],concentration-dependently decreased
same,production of NO,RAW264.7 cells [5],concentration-dependently decreased
same,production of PGE2,RAW264.7 cells [5],concentration-dependently decreased
same,mRNA expression level of IL-1β,BV2 cells [6],concentration-dependently decreased
same,mRNA expression level of IL-6,BV2 cells [6],concentration-dependently decreased
same,mRNA expression level of TNF-α,BV2 cells [6],concentration-dependently decreased
same,mRNA expression level of IL-1β,RAW264.7 cells [7],concentration-dependently decreased
same,mRNA expression level of IL-6,RAW264.7 cells [7],concentration-dependently decreased
same,mRNA expression level of TNF-α,RAW264.7 cells [7],concentration-dependently decreased
same,"level of transcription of NF-κB protein into the nucleus, p50",RAW264.7 cells [8],concentration-dependently decreased
same,"level of transcription of NF-κB protein into the nucleus, p65",RAW264.7 cells [8],concentration-dependently decreased
same,"level of transcription of NF-κB protein into the nucleus, p50",BV2 cells [9],concentration-dependently decreased
same,"level of transcription of NF-κB protein into the nucleus, p65",BV2 cells [9],concentration-dependently decreased
